Changes are numbered by the printed parent chain. Read-outs that look alike come from different tables or passages of the source.
How the values were obtained:
wild-type LasR [1] = target: T1, wild-type LasR (Pseudomonas aeruginosa, UniProt P25084); assay: β-galactosidase reporter-gene assay, LasR activation; type: cell-based; settings: E. coli reporter, geometric mean of biological triplicates
T1 sequence (P25084 1-239): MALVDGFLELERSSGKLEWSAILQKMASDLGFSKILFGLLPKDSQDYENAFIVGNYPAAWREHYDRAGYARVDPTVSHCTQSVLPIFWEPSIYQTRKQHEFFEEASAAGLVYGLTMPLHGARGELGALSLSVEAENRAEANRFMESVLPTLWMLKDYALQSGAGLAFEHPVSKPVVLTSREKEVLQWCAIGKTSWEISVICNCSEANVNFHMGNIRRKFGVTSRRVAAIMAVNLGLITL

LasR T75V = target: T2, LasR T75V (Pseudomonas aeruginosa, UniProt P25084, T75V); assay: as above; type: cell-based
T2 sequence (P25084 1-239 T75V): T1 sequence (P25084 1-239) with T75V

LasR Y93F = target: T3, LasR Y93F (Pseudomonas aeruginosa, UniProt P25084, Y93F); assay: as above; type: cell-based
T3 sequence (P25084 1-239 Y93F): T1 sequence (P25084 1-239) with Y93F

LasR Y56F = target: T4, LasR Y56F (Pseudomonas aeruginosa, UniProt P25084, Y56F); assay: as above; type: cell-based
T4 sequence (P25084 1-239 Y56F): T1 sequence (P25084 1-239) with Y56F

LasR S129A = target: T5, LasR S129A (Pseudomonas aeruginosa, UniProt P25084, S129A); assay: as above; type: cell-based
T5 sequence (P25084 1-239 S129A): T1 sequence (P25084 1-239) with S129A

LasR W60F = target: T6, LasR W60F (Pseudomonas aeruginosa, UniProt P25084, W60F); assay: as above; type: cell-based; settings: for effect of mutation on LasR activation (in words): ligand at 100 nM
T6 sequence (P25084 1-239 W60F): T1 sequence (P25084 1-239) with W60F

LasR R61M = target: T7, LasR R61M (Pseudomonas aeruginosa, UniProt P25084, R61M); assay: as above; type: cell-based
T7 sequence (P25084 1-239 R61M): T1 sequence (P25084 1-239) with R61M

LasR T115V = target: T8, LasR T115V (Pseudomonas aeruginosa, UniProt P25084, T115V); assay: as above; type: cell-based
T8 sequence (P25084 1-239 T115V): T1 sequence (P25084 1-239) with T115V

wild-type LasR [2] = target: T1, wild-type LasR; settings: read-out: EC50 value in wild-type LasR; cited from earlier work
LasR D73L = target: T9, LasR D73L (Pseudomonas aeruginosa, UniProt P25084, D73L); assay: β-galactosidase reporter-gene assay, LasR activation; type: cell-based
T9 sequence (P25084 1-239 D73L): T1 sequence (P25084 1-239) with D73L

LasR W88F = target: T10, LasR W88F (Pseudomonas aeruginosa, UniProt P25084, W88F); assay: as above; type: cell-based
T10 sequence (P25084 1-239 W88F): T1 sequence (P25084 1-239) with W88F

[3] = E. coli reporter, geometric mean of biological triplicates

## CCCCCCCCCC(=O)CC(=O)NC1CCSC1=O (centres unmarked) [Ligand 1]
wild-type LasR [1]
  EC50: 5 nM
LasR T75V; [3]
  EC50: 0.5 nM
LasR Y93F; [3]
  EC50: 10 nM
LasR Y56F; [3]
  EC50: 5 nM
LasR S129A; [3]
  EC50: 30 nM
LasR W60F; [3]
  EC50: 70 nM
LasR R61M; [3]
  EC50: 80 nM
LasR T115V; [3]
  EC50: 3.5 µM

## CCCCCCCCCC(=O)CC(=O)NC1CCCC1 [Ligand 2]
LasR S129A; ligand at 10 μM
  effect of mutation on LasR activation (in words): significantly detrimental
LasR R61M; ligand at 10 μM
  effect of mutation on LasR activation (in words): significantly detrimental
LasR T115V; ligand at 10 μM
  effect of mutation on LasR activation (in words): significantly detrimental

## CCCCCCCCCC(=O)CC(=O)Nc1ccccc1 [Ligand 3]
LasR Y93F; ligand at 10 μM
  activity in mutant LasR (activation, in words): flipped the activity of 3 into an agonist
LasR Y56F; ligand at 10 μM
  activity in mutant LasR (activation, in words): moderate agonist
LasR W60F; ligand at 10 μM
  activity in mutant LasR (activation, in words): moderate agonist

## CCCCCCCCCCCC(=O)N[C@H]1CCOC1=O [Ligand 4]
LasR Y56F; ligand at 100 nM
  effect of mutation on LasR activation (in words): small but significant impact
LasR S129A; ligand at 100 nM
  effect of mutation on LasR activation (in words): significantly decreased LasR activation
LasR W60F
  effect of mutation on LasR activation (in words): significantly decreased LasR activation
LasR R61M; ligand at 100 nM
  effect of mutation on LasR activation (in words): perhaps only a slight effect
LasR T115V; ligand at 100 nM
  effect of mutation on LasR activation (in words): destroyed LasR activation
wild-type LasR [2]
  EC50: 40 nM

## CCCCCCCCCCCC(=O)N[C@H]1CCSC1=O [Ligand 5]
LasR S129A; ligand at 100 nM
  effect of mutation on LasR activation (in words): significantly decreased LasR activation
LasR W60F
  effect of mutation on LasR activation (in words): significantly decreased LasR activation
LasR R61M; ligand at 100 nM
  effect of mutation on LasR activation (in words): no significant effect
LasR T115V; ligand at 100 nM
  effect of mutation on LasR activation (in words): destroyed LasR activation

## CCCCCCCCCC(=O)CC(=O)N[C@H]1CCOC1=O [OdDHL, N-(3-oxo)-dodecanoyl L-homoserine lactone, reference compound]
LasR T75V; 10 μM OdDHL, mean of biological triplicates
  maximal activation (% vs. wild-type): 106%
LasR D73L; 10 μM OdDHL
  maximal activation (% vs. wild-type): 0%
LasR D73L; E. coli reporter
  EC50: inactive
LasR W88F; 10 μM OdDHL
  maximal activation (% vs. wild-type): 0%
LasR W88F; E. coli reporter
  EC50: inactive
LasR Y93F; 10 μM OdDHL
  maximal activation (% vs. wild-type): 93%
LasR Y56F; 10 μM OdDHL
  maximal activation (% vs. wild-type): 102%
LasR S129A; 10 μM OdDHL
  maximal activation (% vs. wild-type): 103%
LasR W60F; 10 μM OdDHL
  maximal activation (% vs. wild-type): 73%
LasR R61M; 10 μM OdDHL
  maximal activation (% vs. wild-type): 56%
LasR T115V; 100 μM OdDHL
  maximal activation (% vs. wild-type): 109%

Source: publication PMC4303524 (Organic & biomolecular chemistry, 2015)
